We go through 30 compounds from patent US20190071416A1, “COMPOUNDS FOR TREATMENT OF CANCER AND EPIGENETICS” (Agency For Science, Technology and Research, priority 2015, published 2019).

For this test, the target named is T1, SMYD3 (Homo sapiens, UniProt Q9H7B4).
T1 sequence (Q9H7B4 1-428): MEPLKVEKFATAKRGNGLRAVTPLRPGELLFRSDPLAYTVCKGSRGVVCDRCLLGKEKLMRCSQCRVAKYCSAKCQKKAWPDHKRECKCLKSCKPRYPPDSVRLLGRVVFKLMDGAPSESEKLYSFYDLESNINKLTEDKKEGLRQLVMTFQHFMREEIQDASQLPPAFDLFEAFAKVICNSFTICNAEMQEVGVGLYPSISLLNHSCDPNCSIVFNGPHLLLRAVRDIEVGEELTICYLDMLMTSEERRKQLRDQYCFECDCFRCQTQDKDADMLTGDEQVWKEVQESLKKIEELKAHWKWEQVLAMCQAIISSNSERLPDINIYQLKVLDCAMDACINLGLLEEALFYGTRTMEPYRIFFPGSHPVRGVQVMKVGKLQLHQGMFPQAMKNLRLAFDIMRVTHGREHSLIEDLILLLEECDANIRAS
The test is described as follows: SMYD3 biochemical assay (MTase-Glo, MAP3K2 peptide substrate). The following applies: Table 3; MTase assay, MAP3K2 peptide substrate; read-out: IC50. A digest of the protocol: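 Luminescent readout of SAH production (coupled SAH→ATP conversion, MTase-Glo) after SMYD3 reacted 30 min at room temperature with 1.0 µM SAM and 10 µM MAP3K2 peptide, both final. Non-linear regression gave IC50 values.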
The term IC50 denotes the concentration at which inhibition is half-maximal. `CCCOC(=O)N1CCN(C(=O)c2ccc3c(Cl)c4c(nc3c2)CCCC4)CC1C#N` (stereo not drawn) [A117, Propyl 4-(9-chloro-5,6,7,8-tetrahydroacridine-3-carbonyl)-2-cyanopiperazine-1-carboxylate]: the IC50 came out at 120 nM.
The value for `CCCOC(=O)N1CCN(C(=O)c2ccc3c(Cl)c4c(nc3c2)C(C)CCC4)CC1` (stereo not drawn) [A118, Propyl 4-(9-chloro-5-methyl-5,6,7,8-tetrahydroacridine-3-carbonyl)piperazine-1-carboxylate] was 180 nM; that for `CCCOC(=O)N1CCN(C(=O)c2ccc3c(Cl)c4c(nc3c2)C(c2ccccc2)CCC4)CC1` (stereo not drawn) [A119, Propyl 4-(9-chloro-5-phenyl-5,6,7,8-tetrahydroacridine-3-carbonyl)piperazine-1-carboxylate] was 1900 nM; that for `CCCOC(=O)N1CCN(C(=O)c2ccc3c(Cl)c4c(nc3c2)CC(CCN(C)C)CC4)[C@H](C)C1` (stereo partly drawn) [A120, Propyl (3R)-4-(9-chloro-6-(2-(dimethylamino)ethyl)-5,6,7,8-tetrahydroacridine-3-carbonyl)-3-methylpiperazine-1-carboxylate] was 120 nM.
Under `CCCOC(=O)N1CCN(C(=O)c2ccc3c(Cl)c4c(nc3c2)CC(CCN2CCCC2)CC4)CC1` (stereo not drawn) [A121, Propyl 4-(9-chloro-6-(2-(pyrrolidin-1-yl)ethyl)-5,6,7,8-tetrahydroacridine-3-carbonyl)piperazine-1-carboxylate] stands 220 nM.
The value for `CCCOC(=O)N1CCN(C(=O)c2ccc3c(Cl)c4c(nc3c2)CC(c2ccnc(C)c2)CC4)C[C@H]1C` (stereo partly drawn) [A122, Propyl (2R)-4-(9-chloro-6-(2-methylpyridin-4-yl)-5,6,7,8-tetrahydroacridine-3-carbonyl)-2-methylpiperazine-1-carboxylate] was 120 nM; that for `CCCOC(=O)N1CCN(C(=O)c2ccc3c(Cl)c4c(nc3c2)CC(c2ccnc(C)c2)CC4)C[C@@H]1C` (stereo partly drawn) [A123, Propyl (2S)-4-(9-chloro-6-(2-methylpyridin-4-yl)-5,6,7,8-tetrahydroacridine-3-carbonyl)-2-methylpiperazine-1-carboxylate] was 140 nM.
As to `CCCOC(=O)N1CCN(C(=O)c2ccc3c(Cl)c4c(nc3c2)CC(c2ncccc2F)CC4)C[C@@H]1C` (stereo partly drawn) [A124, Propyl (2S)-4-(9-chloro-6-(3-fluoropyridin-2-yl)-5,6,7,8-tetrahydroacridine-3-carbonyl)-2-methylpiperazine-1-carboxylate], the IC50 stood at 340 nM.
`CCCOC(=O)N1CCN(C(=O)c2ccc3c(Cl)c4c(nc3c2)CCCC4)C(CO)C1` (stereo not drawn) [A125, Propyl 4-(9-chloro-5,6,7,8-tetrahydroacridine-3-carbonyl)-3-(hydroxymethyl)piperazine-1-carboxylate]: the IC50 was 250 nM.
The value for `CCCOC(=O)N1CCN(C(=O)c2ccc3c(Cl)c4c(nc3c2)CC(CCN(C)C)CC4)[C@@H](C)C1` (stereo partly drawn) [A126, Propyl (3S)-4-(9-chloro-6-(2-(dimethylamino)ethyl)-5,6,7,8-tetrahydroacridine-3-carbonyl)-3-methylpiperazine-1-carboxylate] was 110 nM; that for `CCCOC(=O)N1CCN(C(=O)c2ccc3c(Cl)c4c(nc3c2)C(C)CCC4)C[C@H]1C` (stereo partly drawn) [A127, Propyl (2R)-4-(9-chloro-5-methyl-5,6,7,8-tetrahydroacridine-3-carbonyl)-2-methylpiperazine-1-carboxylate] was 110 nM; that for `CCCOC(=O)N1CCN(C(=O)c2ccc3c(Cl)c4c(nc3c2)CC(c2nccs2)CC4)CC1` (stereo not drawn) [A128, Propyl 4-(9-chloro-6-(thiazol-2-yl)-5,6,7,8-tetrahydroacridine-3-carbonyl)piperazine-1-carboxylate] was 100 nM.
Take `CCCOC(=O)N1CCN(C(=O)c2ccc3c(Cl)c4c(nc3c2)CC(c2nccs2)CC4)C[C@H]1C` (stereo partly drawn) [A129, Propyl (2R)-4-(9-chloro-6-(thiazol-2-yl)-5,6,7,8-tetrahydroacridine-3-carbonyl)-2-methylpiperazine-1-carboxylate]: the IC50 came out at 94 nM.
For `CCCOC(=O)N1CCN(C(=O)c2ccc3c(Cl)c4c(nc3c2)CC(c2ccc(C)cn2)CC4)CC1` (stereo not drawn) [A130, Propyl 4-(9-chloro-6-(5-methylpyridin-2-yl)-5,6,7,8-tetrahydroacridine-3-carbonyl)piperazine-1-carboxylate], the IC50 is 130 nM.
Consider `CCCOC(=O)N1CCN(C(=O)c2ccc3c(Cl)c4c(nc3c2)CC(c2ccc(C)cn2)CC4)C[C@H]1C` (stereo partly drawn) [A131, Propyl (2R)-4-(9-chloro-6-(5-methylpyridin-2-yl)-5,6,7,8-tetrahydroacridine-3-carbonyl)-2-methylpiperazine-1-carboxylate], for which the IC50 was 110 nM.
The value for `CCCOC(=O)N1CCN(C(=O)c2ccc3c(Cl)c4c(nc3c2)CC(c2cc(C)ccn2)CC4)CC1` (stereo not drawn) [A132, Propyl 4-(9-chloro-6-(4-methylpyridin-2-yl)-5,6,7,8-tetrahydroacridine-3-carbonyl)piperazine-1-carboxylate] was 210 nM; that for `CCCOC(=O)N1CCN(C(=O)c2ccc3c(Cl)c4c(nc3c2)CC(c2cc(C)ccn2)CC4)C[C@H]1C` (stereo partly drawn) [A133, Propyl (2R)-4-(9-chloro-6-(4-methylpyridin-2-yl)-5,6,7,8-tetrahydroacridine-3-carbonyl)-2-methylpiperazine-1-carboxylate] was 120 nM.
The value for `CCCOC(=O)N1CCN(C(=O)c2ccc3c(Cl)c4c(nc3c2)CC(c2ccncn2)CC4)CC1` (stereo not drawn) [A134, Propyl 4-(9-chloro-6-(pyrimidin-4-yl)-5,6,7,8-tetrahydroacridine-3-carbonyl)piperazine-1-carboxylate] was 140 nM.
Under `CCCOC(=O)N1CCN(C(=O)c2ccc3c(Cl)c4c(nc3c2)CC(CCN(C)C)CC4)C[C@H]1C` (stereo partly drawn) [A135, Propyl (2R)-4-(9-chloro-6-(2-(dimethylamino)ethyl)-5,6,7,8-tetrahydroacridine-3-carbonyl)-2-methylpiperazine-1-carboxylate] stands 75 nM.
Consider `CCCOC(=O)N1CCN(C(=O)c2ccc3c(Cl)c4c(nc3c2)CC(CCN(C)C)CC4)C[C@@H]1C` (stereo partly drawn) [A136, Propyl (2S)-4-(9-chloro-6-(2-(dimethylamino)ethyl)-5,6,7,8-tetrahydroacridine-3-carbonyl)-2-methylpiperazine-1-carboxylate], for which the IC50 is 69 nM.
With `C#CCC1CCc2c(nc3cc(C(=O)N4CCN(C(=O)OCCC)C[C@@H]4C)ccc3c2Cl)C1` (stereo partly drawn) [A137, Propyl (3S)-4-(9-chloro-6-(prop-2-yn-1-yl)-5,6,7,8-tetrahydroacridine-3-carbonyl)-3-methylpiperazine-1-carboxylate], the IC50 came to 290 nM.
Under `CCCOC(=O)N1CCN(C(=O)c2ccc3c(Cl)c4c(nc3c2)CC(c2ccnc(C#N)c2)CC4)CC1` (stereo not drawn) [A138, Propyl 4-(9-chloro-6-(2-cyanopyridin-4-yl)-5,6,7,8-tetrahydroacridine-3-carbonyl)piperazine-1-carboxylate] stands 680 nM.
As to `CCCOC(=O)N1CCN(C(=O)c2ccc3c(Cl)c4c(nc3c2)CC(c2ccnc(C(N)=O)c2)CC4)CC1` (stereo not drawn) [A139, Propyl 4-(6-(2-carbamoylpyridin-4-yl)-9-chloro-5,6,7,8-tetrahydroacridine-3-carbonyl)piperazine-1-carboxylate], the half-maximal inhibitory concentration (IC50) amounted to 350 nM.
The value for `CCCOC(=O)N1CCN(C(=O)c2ccc3c(Cl)c4c(nc3c2)CC(c2ccnc(C#N)c2)CC4)C[C@H]1C` (stereo partly drawn) [A140, Propyl (2R)-4-(9-chloro-6-(2-cyanopyridin-4-yl)-5,6,7,8-tetrahydroacridine-3-carbonyl)-2-methylpiperazine-1-carboxylate] was 420 nM.
Turning to `CCCOC(=O)N1CCN(C(=O)c2ccc3c(Cl)c4c(nc3c2)CC(c2ccnc(C(N)=O)c2)CC4)C[C@H]1C` (stereo partly drawn) [A141, Propyl (2R)-4-(6-(2-carbamoylpyridin-4-yl)-9-chloro-5,6,7,8-tetrahydroacridine-3-carbonyl)-2-methylpiperazine-1-carboxylate], the IC50 turned out to be 230 nM.
For the compound `C#CCC1CCc2c(nc3cc(C(=O)N4CCN(C(=O)OCCC)[C@H](C)C4)ccc3c2Cl)C1` (stereo partly drawn) [A142, Propyl (2R)-4-(9-chloro-6-(prop-2-yn-1-yl)-5,6,7,8-tetrahydroacridine-3-carbonyl)-2-methylpiperazine-1-carboxylate], the IC50 was determined as 420 nM.
The value for `CCCOC(=O)N1CCN(C(=O)c2ccc3c(Cl)c4c(nc3c2)CC(c2ccnc(C#N)c2)CC4)[C@@H](C)C1` (stereo partly drawn) [A143, Propyl (3S)-4-(9-chloro-6-(2-cyanopyridin-4-yl)-5,6,7,8-tetrahydroacridine-3-carbonyl)-3-methylpiperazine-1-carboxylate] was 460 nM; that for `CCCOC(=O)N1CCN(C(=O)c2ccc3c(Cl)c4c(nc3c2)CC(c2ccnc(CN)c2)CC4)CC1` (stereo not drawn) [A144, Propyl 4-(6-(2-(aminomethyl)pyridin-4-yl)-9-chloro-5,6,7,8-tetrahydroacridine-3-carbonyl)piperazine-1-carboxylate] was 510 nM; that for `CCCOC(=O)N1CCN(C(=O)c2ccc3c(Cl)c4c(nc3c2)CC(c2ccnc(C(N)=O)c2)CC4)[C@@H](C)C1` (stereo partly drawn) [A145, Propyl (3S)-4-(6-(2-carbamoylpyridin-4-yl)-9-chloro-5,6,7,8-tetrahydroacridine-3-carbonyl)-3-methylpiperazine-1-carboxylate] was 220 nM.
Under `C=CCC1CCCc2c1nc1cc(C(=O)N3CCN(C(=O)OCCC)CC3)ccc1c2Cl` (stereo not drawn) [A146, Propyl 4-(5-allyl-9-chloro-5,6,7,8-tetrahydroacridine-3-carbonyl)piperazine-1-carboxylate] stands 560 nM.
